Where a name gives a salt, the structure may show the parent alone.
Tested on: E. coli DH5α
Test: Antimicrobial activity by agar diffusion assay (zone of inhibition)
Type: cell-based
Parameters: unit not given here
Conditions: 50 μl of 10 mg/ml aqueous antibiotic stock in agar well; 37° C., 18 hr
Protocol: Antimicrobial activity of polymers was checked against E. coli DH5α using agar diffusion assay. Single colony of E. coli was inoculated in 10 ml of Luria Broth (LB) and incubated till OD600 reached 0.5 (log-phase culture) and 100 μl of bacterial culture was spread over LB agar plates. To check the antimicrobial activity of the antibiotics, wells were made by punching a hole in the LB agar plates. For reference plates, 50 μl of 10 mg/ml aqueous stock solution of each antibiotic was added in the wells as shown in the top row of FIG. 6.
For experiments with alginate polymers, polymer pellets were washed three times with sterile DI water to remove any unbound free antibiotics. Each washing step included the addition of 500 μl of sterile DI water and centrifugation at 10000 rpm for 15 min. After washing, polymer pellets were placed at the center of the LB plates with E. coli DH5α. Plates were incubated at 37° C. for 18 hours (hr). The zone of inhibition, e.g., the area with no growth of bacteria around well or polymer pellet, was measured using a ruler as shown in the middle and bottom rows of FIG. 6 and in Table 3 below.
The antimicrobial property of alginateaminoglycoside polymer against E. coli DH5α was quantified by measurement of the zone of bacterial inhibition. In particular, aminoglycoside biopolymers were prepared in microcentrifuge tubes and after centrifugation, pellet was washed three times with sterile deionized water to remove free antibiotic. After washing, the polymer pellet was carefully removed using a spatula and placed at the center of the plate containing E. coli DH5α cells and incubated for 18 hr. After incubation for 18 hr, white polymer pellets became transparent to varying degrees.
In particular, circular zones of growth inhibition are visible after antibiotics and polymers were placed in wells at the centers of LB plates. […] While polymers made with KS, GS, and KDS became transparent, polymers made with TS and NS remained white.

NC[C@H]1O[C@H](O[C@H]2[C@H](O)[C@@H](O[C@H]3O[C@H](CO)[C@@H](O)[C@H](N)[C@H]3O)[C@H](N)C[C@@H]2N)[C@H](O)[C@@H](O)[C@@H]1O [KS, kanamycin sulfate] was tested. Which “diameter of zone of inhibition, Antibiotic only” value (“diameter of zone of inhibition” for short) did it give?
The value was 3.4 ± 0.1.

With [H]/N=C(/N)N[C@H]1[C@H](O)[C@@H](O)[C@H](O[C@@H]2O[C@@H](C)[C@](O)(C=O)[C@H]2O[C@@H]2O[C@@H](CO)[C@H](O)[C@@H](O)[C@@H]2NC)[C@@H](N/C(N)=N\[H])[C@@H]1O [SS, streptomycin sulfate] as the compound, how does the “diameter of zone of inhibition” value read?
Its value is 3.5 ± 0.1.

gentamicin sulfate [GS] was tested. Which “diameter of zone of inhibition” value did it give?
Its value is 2.9 ± 0.1.

How did the “diameter of zone of inhibition” value turn out when kanamycin disulfate [KDS] was run?
Its value is 3.0 ± 0.1.

Which “diameter of zone of inhibition” value does the source give for neomycin sulfate [NS] here?
Its value is 3.0 ± 0.2.

With tobramycin sulfate [TS] as the compound, how does the “diameter of zone of inhibition” value read?
The value was 3.1 ± 0.1.
